Test results published in patent US20260102501A1, “ANTI-CANCER NUCLEAR HORMONE RECEPTOR-TARGETING COMPOUNDS” (Nuvation Bio Inc., priority 2022, published 2026).
Residue numbers refer to the chain shown, from its start. Counter-ions that a name gives are not always drawn. Like-named read-outs stand apart in the source and are kept apart here.

Key:
[1] = biological target: T1, GR (cytosol from IM-9 cells) (Homo sapiens, UniProt P04150); experiment: GR binding assay (3H-Dexamethasone displacement)
T1 sequence (P04150 1-777): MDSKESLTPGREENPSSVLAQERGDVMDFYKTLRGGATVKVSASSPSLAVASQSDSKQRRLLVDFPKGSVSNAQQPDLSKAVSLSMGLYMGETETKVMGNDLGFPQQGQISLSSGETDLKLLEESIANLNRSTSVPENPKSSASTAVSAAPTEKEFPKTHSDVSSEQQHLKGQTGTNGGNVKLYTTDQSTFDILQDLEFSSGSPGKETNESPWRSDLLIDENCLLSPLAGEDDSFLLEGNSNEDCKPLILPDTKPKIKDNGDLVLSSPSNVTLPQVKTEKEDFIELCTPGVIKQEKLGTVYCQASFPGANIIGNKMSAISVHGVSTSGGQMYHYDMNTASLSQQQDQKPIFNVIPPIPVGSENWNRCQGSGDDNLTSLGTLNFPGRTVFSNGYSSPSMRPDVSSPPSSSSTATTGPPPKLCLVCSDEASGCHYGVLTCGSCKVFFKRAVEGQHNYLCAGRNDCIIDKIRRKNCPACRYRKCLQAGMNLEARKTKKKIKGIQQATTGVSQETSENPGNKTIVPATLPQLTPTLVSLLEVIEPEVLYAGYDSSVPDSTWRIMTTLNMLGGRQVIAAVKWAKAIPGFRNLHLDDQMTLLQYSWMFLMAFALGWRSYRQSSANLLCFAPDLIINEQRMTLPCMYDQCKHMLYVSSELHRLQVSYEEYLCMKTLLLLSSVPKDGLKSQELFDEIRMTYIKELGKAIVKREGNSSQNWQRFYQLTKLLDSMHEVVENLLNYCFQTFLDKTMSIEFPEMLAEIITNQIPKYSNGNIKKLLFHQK

[2] = biological target: T2, full-length androgen receptor (HEK293 cells stably expressing) (Homo sapiens, UniProt P10275); experiment: AR antagonism assay (luciferase reporter)
T2 sequence (P10275 1-920): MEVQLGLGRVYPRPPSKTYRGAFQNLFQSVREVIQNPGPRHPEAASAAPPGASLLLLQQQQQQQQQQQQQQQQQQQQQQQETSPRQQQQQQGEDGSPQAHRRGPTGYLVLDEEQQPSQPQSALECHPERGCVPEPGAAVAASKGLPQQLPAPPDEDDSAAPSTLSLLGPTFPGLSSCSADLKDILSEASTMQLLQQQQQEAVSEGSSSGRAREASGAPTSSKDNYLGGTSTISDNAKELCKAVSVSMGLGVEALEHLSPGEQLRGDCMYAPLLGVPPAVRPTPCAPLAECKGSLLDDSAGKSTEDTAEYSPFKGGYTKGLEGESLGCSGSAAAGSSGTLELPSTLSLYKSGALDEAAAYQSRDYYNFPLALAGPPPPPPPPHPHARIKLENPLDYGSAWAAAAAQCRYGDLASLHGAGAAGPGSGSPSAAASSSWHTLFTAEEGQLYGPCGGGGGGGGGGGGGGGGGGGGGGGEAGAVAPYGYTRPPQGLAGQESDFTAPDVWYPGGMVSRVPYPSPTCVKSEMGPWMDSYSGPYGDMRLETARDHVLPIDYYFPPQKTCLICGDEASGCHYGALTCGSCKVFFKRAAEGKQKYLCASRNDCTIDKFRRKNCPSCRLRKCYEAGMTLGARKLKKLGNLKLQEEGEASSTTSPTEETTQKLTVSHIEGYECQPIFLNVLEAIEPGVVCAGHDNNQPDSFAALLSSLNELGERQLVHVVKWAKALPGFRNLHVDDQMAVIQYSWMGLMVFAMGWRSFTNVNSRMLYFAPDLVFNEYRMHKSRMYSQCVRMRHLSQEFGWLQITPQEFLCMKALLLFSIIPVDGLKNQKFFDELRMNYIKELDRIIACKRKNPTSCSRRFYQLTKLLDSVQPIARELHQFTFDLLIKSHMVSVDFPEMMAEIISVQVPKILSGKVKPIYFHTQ
Procedure: AR antagonism assay: To evaluate AR antagonist activity, test compound was added to the assay plate (top dose 10 μM, 3 fold serial dilution, 10 point dose response). HEK293 cells stably expressing the full-length androgen receptor were seeded at a density of 20000 cells/well in the assay plate. The assay plate was then incubated at room temperature for 10 minutes and at 37° C. 5% CO2 for 20 minutes. Testosterone was added to the assay plate at 1 nM final concentration and the assay plate incubated at 37° C., 5% CO2 for 20 h. […] Steady-glo was added to the assay plate and mixed at room temperature for 20 minutes on an orbital shaker, before reading out on the En Vision plate reader.

[3] = biological target: T3, ligand binding domain of the glucocorticoid receptor (HEK293 cells stably expressing) (Homo sapiens, UniProt P04150); experiment: GR antagonism assay (luciferase reporter)
T3 sequence (P04150 524-758 limits assumed): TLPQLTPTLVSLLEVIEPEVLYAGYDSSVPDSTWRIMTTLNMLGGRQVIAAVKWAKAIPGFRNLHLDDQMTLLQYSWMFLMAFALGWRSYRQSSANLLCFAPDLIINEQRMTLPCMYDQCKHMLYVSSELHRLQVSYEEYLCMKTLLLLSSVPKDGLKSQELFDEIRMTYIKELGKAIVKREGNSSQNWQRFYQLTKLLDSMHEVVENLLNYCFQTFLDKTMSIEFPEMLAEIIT
Procedure: HEK293 cells stably expressing the ligand binding domain of the glucocorticoid receptor were seeded at a density of 40000 cells/well in the assay plate. The assay plate was then incubated at 37° C., 5% CO2 for 30 minutes. Dexamethasone was added to the assay plate at 1.5 nM final concentration and the assay plate incubated at 37° C., 5% CO2 for 20 h. After the incubation period, Dual-glo luciferase reagent was added to the assay plate and mixed at room temperature for 20 minutes on an orbital shaker, before reading out on the En Vision plate reader. 50 μL of Stop & Glo reagent was added to assay plate, mixed at room temperature for 20 minutes, and read on the Envision plate reader.

[4] = biological target: T4, AR (cytosol from LnCaP cells) (Homo sapiens, UniProt P10275, T878A); experiment: AR binding assay (3H-R1881 displacement)
T4 sequence (P10275 1-920 T878A): T2 sequence (P10275 1-920) with T878A
Procedure: The plate was then centrifuged at 3000 rpm for 30 minutes at 4° C.

22Rv1 cells = experiment: Cell viability assay (CellTiterGlo); conditions: Homo sapiens, 22Rv1, 144 h, read-out: 22RV1 (IC50, nM)
Procedure: Cell viability assay: LNCap, 22Rv1, MCF7, MDAMB361, T47D, and IEC6 cells were seeded at a density of 500-2000 cells/well in 96 well plates, and a ‘T0’ (timepoint 0) was included along with the assay plate. The plates were then incubated at 37° C., 5% CO2 in a cell culture incubator overnight. On the next day, the ‘T0’ plate was assayed using CellTiterGlo (Promega, Inc) according to the manufacturer's instructions. The appropriate compounds were diluted in DMSO and added to the assay plate (final DMSO concentration of 0.1-0.2%) on the next day. The assay plates were incubated for 6 days at 37° C., 5% CO2. After the incubation period, the plates were assayed using CellTiterGlo (Promega, Inc) according to the manufacturer's instructions and luminescence was read on the En Vision plate reader. […] GraphPadPrism was used to analyze the data and determine GI50/IC50 values.

LNCap cells = experiment: Cell viability assay (CellTiterGlo); format: cell-based; conditions: Homo sapiens, 144 h
IEC6 cells = experiment: Cell viability assay (CellTiterGlo); conditions: Rattus norvegicus, IEC-6, 144 h, read-out: IEC-6 (IC50, nM)
[5] = 6 days incubation, CellTiterGlo, read-out: LNCap (IC50)

| Structure (SMILES) | IC50 [1] [nM] | IC50 [2] [nM] | IC50 [3] [nM] | IC50 [4] [nM] | IC50 (22Rv1 cells) [nM] | IC50 (LNCap cells; [5]) [nM] | IC50 (LNCap cells; read-out: LNCap (IC50, nM)) [nM] | IC50 (IEC6 cells) [nM] |
| --- | --- | --- | --- | --- | --- | --- | --- | --- |
| CC[C@@]1(OC(=O)N2CCN(CC3CCN(c4ccc(C(=O)N[C@H]5CC[C@H](Oc6ccc(C#N)c(Cl)c6C)CC5)nn4)CC3)CC2)C(=O)OCc2c1cc1n(c2=O)Cc2cc3cc(OC)ccc3nc2-1 [Compound 23, (S)-4-Ethyl-9-methoxy-3,14-dioxo-3,4,12,14-tetrahydro-1H-pyrano[3′,4′:6,7]indolizino[1,2-b]quinolin-4-yl 4-((1-(6-(((1r,4r)-4-(3-chloro-4-cyano-2-methylphenoxy)cyclohexyl)carbamoyl)pyridazin-3-yl)piperidin-4-yl)methyl)piperazine-1-carboxylate] | > 1000 | > 1000 | > 1000 | 10 to 100 | 101 to 1000 | 10 to 100 | – | – |
| CC[C@@]1(O)C(=O)OCc2c1cc1n(c2=O)Cc2cc3c(CN4CCN(C(=O)C5CCN(c6ccc(C(=O)N[C@H]7CC[C@H](Oc8ccc(C#N)c(Cl)c8C)CC7)nn6)CC5)CC4)c(OC(=O)N4CCN(C)CC4)ccc3nc2-1 [Compound 27, (S)-10-((4-(1-(6-(((1r,4r)-4-(3-Chloro-4-cyano-2-methylphenoxy)cyclohexyl)carbamoyl)-pyridazin-3-yl)piperidine-4-carbonyl)piperazin-1-yl)methyl)-4-ethyl-4-hydroxy-3,14-dioxo-3,4,12,14-tetrahydro-1H-pyrano[3′,4′:6,7]indolizino[1,2-b]quinolin-9-yl 4-methylpiperazine-1-carboxylate Formate] | 10 to 100 | 101 to 1000 | > 1000 | < 10 | 101 to 1000 | – | 10 to 100 | – |
| CC[C@@]1(O)C(=O)OCc2c1cc1n(c2=O)Cc2cc3c(CN4CCN(C(=O)C5CCN(c6ccc(C(=O)N[C@H]7CC[C@H](Oc8ccc(C#N)c(Cl)c8C)CC7)nn6)CC5)CC4)c(O)ccc3nc2-1 [Compound 25, N-((1r,4r)-4-(3-Chloro-4-cyano-2-methylphenoxy)cyclohexyl)-6-(4-(4-(((S)-4-ethyl-4,9-dihydroxy-3,14-dioxo-3,4,12,14-tetrahydro-1H-pyrano[3′,4′:6,7]indolizino[1,2-b]quinolin-10-yl)methyl)piperazine-1-carbonyl)piperidin-1-yl)pyridazine-3-carboxamide] | > 1000 | > 1000 | > 1000 | < 10 | 10 to 100 | < 10 | – | – |
| CC[C@@]1(O)C(=O)OCc2c1cc1n(c2=O)Cc2cc3c(CN(C)C)c(OC(=O)N4C[C@H](C)N(C(=O)C5CCN(c6ccc(C(=O)N[C@H]7CC[C@H](Oc8ccc(C#N)c(Cl)c8C)CC7)nn6)CC5)C[C@H]4C)ccc3nc2-1 [Compound No. 21, (S)-10-((Dimethylamino)methyl)-4-ethyl-4-hydroxy-3,14-dioxo-3,4,12,14-tetrahydro-1H-pyrano[3′,4′:6,7]indolizino[1,2-b]quinolin-9-yl (2R,5S)-4-(1-(6-(((1r,4r)-4-(3-chloro-4-cyano-2-methylphenoxy)cyclohexyl)carbamoyl)pyridazin-3-yl)piperidine-4-carbonyl)-2,5-dimethylpiperazine-1-carboxylate Formate] | > 1000 | > 1000 | > 1000 | < 10 | 101 to 1000 | – | 10 to 100 | > 1000 |
| CC[C@@]1(O)C(=O)OCc2c1cc1n(c2=O)Cc2cc3c(CN4CCN(CC5CCN(c6ccc(C(=O)N[C@H]7CC[C@H](Oc8ccc(C#N)c(Cl)c8C)CC7)nn6)CC5)CC4)c(O)ccc3nc2-1 [Compound 26, N-((1r,4r)-4-(3-Chloro-4-cyano-2-methylphenoxy)cyclohexyl)-6-(4-((4-(((S)-4-ethyl-4,9-dihydroxy-3,14-dioxo-3,4,12,14-tetrahydro-1H-pyrano[3′,4′:6,7]indolizino[1,2-b]quinolin-10-yl)methyl)piperazin-1-yl)methyl)piperidin-1-yl)pyridazine-3-carboxamide Formate] | > 1000 | > 1000 | > 1000 | < 10 | 10 to 100 | < 10 | – | – |
| CC[C@@]1(O)C(=O)OCc2c1cc1n(c2=O)Cc2cc3c(CN(C)C)c(OC(=O)N4CCN(CCCCCCN(C)C5CCN(c6ccc(C(=O)N[C@H]7CC[C@H](Oc8ccc(C#N)c(Cl)c8C)CC7)nn6)CC5)CC4)ccc3nc2-1 [Compound No. 22, (S)-10-((Dimethylamino)methyl)-4-ethyl-4-hydroxy-3,14-dioxo-3,4,12,14-tetrahydro-1H-pyrano[3′,4′:6,7]indolizino[1,2-b]quinolin-9-yl 4-(6-((1-(6-(((1r,4r)-4-(3-chloro-4-cyano-2-methylphenoxy)-cyclohexyl)carbamoyl)pyridazin-3-yl)piperidin-4-yl)(methyl)amino)hexyl)piperazine-1-carboxylate Formate] | 101 to 1000 | 101 to 1000 | 101 to 1000 | < 10 | 101 to 1000 | – | 10 to 100 | – |
